Source: PMC6272861, “In Vitro Inhibition of Human UDP-Glucuronosyl-Transferase (UGT) Isoforms by Astaxanthin, β-Cryptoxanthin, Canthaxanthin, Lutein, and Zeaxanthin: Prediction of in Vivo Dietary Supplement-Drug Interactions” (Molecules, 2016)
Read-outs that look alike come from different tables or passages of the source.

What was measured:
[1] = target: T1, UGT2B15 (Homo sapiens, UniProt P54855); experiment: Inhibition of UGT2B15 (4-methylumbelliferyl glucuronidation) in recombinant human UGT2B15 supersomes; format: in vitro ADME
T1 construct: purchased Corning Life Sciences
T1 sequence (P54855 24-530): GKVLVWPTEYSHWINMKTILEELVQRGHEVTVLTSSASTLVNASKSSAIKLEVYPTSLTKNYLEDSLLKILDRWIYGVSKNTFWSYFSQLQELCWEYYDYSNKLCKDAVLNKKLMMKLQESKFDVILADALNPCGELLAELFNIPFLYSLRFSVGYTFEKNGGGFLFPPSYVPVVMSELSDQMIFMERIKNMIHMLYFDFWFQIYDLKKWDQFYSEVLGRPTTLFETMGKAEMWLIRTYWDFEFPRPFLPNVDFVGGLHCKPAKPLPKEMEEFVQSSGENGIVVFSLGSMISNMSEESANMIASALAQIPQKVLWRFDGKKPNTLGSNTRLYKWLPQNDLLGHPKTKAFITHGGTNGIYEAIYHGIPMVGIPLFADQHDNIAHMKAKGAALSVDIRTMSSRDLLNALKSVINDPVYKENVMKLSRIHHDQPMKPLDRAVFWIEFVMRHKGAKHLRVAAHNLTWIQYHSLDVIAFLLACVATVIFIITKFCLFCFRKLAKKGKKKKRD
Method: Although S-oxazepam is a typical substrate of UGT2B15 of human liver microsomes, authentic S-oxazepam and the corresponding glucuronide are not commercially […]. Thus, the inhibition of AS, βC, CA, LU, and ZE on the UGT2B15 activity was assessed using 4-methylumbelliferone as the nonspecific probe substrate for all UGTs except UGT1A4 [34] in recombinant human UGT2B15 supersomes.
The reaction was initiated by addition of 10 µL 5 mM UDPGA (to 100 µL total volume) followed by incubation for 120 min at 37 °C in a shaking water bath. Reactions were stopped by addition of 50 µL of ice-cold acetonitrile containing chlorpropamide (300 ng/mL) as an internal standard, and they were chilled and centrifuged (13,000 g, 15 min, 4 °C). An aliquot of 5 μL of supernatant was injected into an LC-MS/MS system. Additionally, identical parallel incubation samples containing a known UGT2B15 inhibitor amitriptyine (0–200 μM) was included as a positive control for UGT2B15.
(§1) For visual inspection, data were presented as Dixon plots.

[2] = target: T2, UGT1A9 (Homo sapiens, UniProt O60656); experiment: Inhibition of UGT1A9 (propofol-O-glucuronidation) in human liver microsomes; conditions: for Residual UGT1A9 enzyme activity: highest tested concentration 50 μM
T2 sequence (O60656 26-530): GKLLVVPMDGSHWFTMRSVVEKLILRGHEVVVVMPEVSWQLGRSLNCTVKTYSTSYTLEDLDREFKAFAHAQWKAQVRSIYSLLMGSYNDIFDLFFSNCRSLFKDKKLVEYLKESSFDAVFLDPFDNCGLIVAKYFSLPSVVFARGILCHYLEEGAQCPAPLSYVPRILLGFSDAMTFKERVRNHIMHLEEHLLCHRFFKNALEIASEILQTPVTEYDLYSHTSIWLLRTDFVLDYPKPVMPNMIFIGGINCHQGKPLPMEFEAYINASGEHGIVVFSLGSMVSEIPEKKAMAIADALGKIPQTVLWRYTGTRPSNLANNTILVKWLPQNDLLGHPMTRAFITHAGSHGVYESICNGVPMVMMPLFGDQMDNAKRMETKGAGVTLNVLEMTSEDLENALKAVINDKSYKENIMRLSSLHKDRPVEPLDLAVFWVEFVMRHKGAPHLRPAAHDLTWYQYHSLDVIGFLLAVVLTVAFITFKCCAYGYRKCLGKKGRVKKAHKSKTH
Method: (§2) The formation activities of β-estradiol-3-glucuronide, chenodeoxycholic acid 24-acyl-β-D-glucuronide, trifluoperazine-N-glucuronide, imipramine-N-β-D-glucuronide, serotonin-O-glucuronide, propofol-O-glucuronide, and zidovudine-5′-glucuronide were determined to probe the activities of UGT1A1, UGT1A3, UGT1A4, UGT1A6, UGT1A9 and UGT2B7, respectively, in human liver microsomes.
(§3) In brief, the 90-µL incubation mixture, including pooled human liver microsomes (final concentration 0.25 mg/mL), 100 mM Tris buffer, 25 µg/mL alamethicin, 5 mM MgCl2, the UGT-selective substrates, and five xanthophylls (0–50 μM), were pre-incubated for 30 min on ice to allow formation of alamethicin pores. Reac2345tions were initiated by the addition of 10 μL of UDPGA (5 mM) to a final reaction volume of 0.1 mL and incubated at 37 °C for 60 min (except 30 min for UGT1A9) in a shaking water bath. After incubation, each reaction was stopped by adding 50 μL of ice-cold acetonitrile containing chlorpropamide (300 ng/mL) or theophylline (30 μg/mL or 300 μg/mL) as an internal standard. The mixtures were then centrifuged (13,000 g for 15 min at 4 °C) and 5-µL aliquots of the supernatants were injected into an LC-MS/MS system. […] All incubations were performed in triplicate, and mean values were used for analysis.
(§4) Chromatographic separations were performed on an Agilent Poroshell 120 EC-C18 column (50 mm × 4.6-mm i.d.; 2.7-μm particle size; Agilent Technologies) to quantify β-estradiol-3-glucuronide (UGT1A1), chenodeoxycholic acid 24-acyl-β-D-glucuronide (UGT1A3), trifluoperazine-N-glucuronide (UGT1A4), propofol-O-glucuronide (UGT1A9), zidovudine-5′-glucuronide (UGT2B7), and 4-methylumbelliferyl glucuronide (UGT2B15); an Agilent Poroshell 120 EC-C18 column (100 × 4.6-mm i.d.; 2.7-mm particle size) was used for quantification of serotonin-O-glucuronide (UGT1A6). The isocratic mobile phase consisted of distilled water (A) and acetonitrile containing 0.1% formic acid (B) at a ratio (v/v) of 10:90 for chenodeoxycholic acid 24-acyl-β-D-glucuronide, 30:70 for trifluoperazine-N-glucuronide and zidovudine-5′-glucuronide, 50:50 for propofol-O-glucuronide and 4-methylumbelliferyl glucuronide, 65:35 for β-estradiol-3-glucuronide, and 90:10 for serotonin-O-glucuronide, at a flow rate of 0.5 mL/min. The total run time was 4.0 min per sample for each metabolite, with the exception of serotonin-O-glucuronide (6.0 min). Peak areas for all of the analytes were automatically integrated using Analyst software (version 1.5.2, Applied Biosystems, Foster City, CA, USA).
(§5) The IC50 values were calculated via nonlinear least-squares regression analysis from plots of the logarithms of inhibitor concentration vs. the residual percentages of activities after inhibition, using WinNonlin (ver. 4.0; Pharsight, Mountain View, CA, USA).

[3] = target: T3, UGT2B7 (Homo sapiens, UniProt P16662); experiment: Inhibition of UGT2B7 (zidovudine-5′-glucuronidation) in human liver microsomes; conditions: for Residual UGT2B7 enzyme activity: highest tested concentration 50 μM
T3 sequence (P16662 24-529): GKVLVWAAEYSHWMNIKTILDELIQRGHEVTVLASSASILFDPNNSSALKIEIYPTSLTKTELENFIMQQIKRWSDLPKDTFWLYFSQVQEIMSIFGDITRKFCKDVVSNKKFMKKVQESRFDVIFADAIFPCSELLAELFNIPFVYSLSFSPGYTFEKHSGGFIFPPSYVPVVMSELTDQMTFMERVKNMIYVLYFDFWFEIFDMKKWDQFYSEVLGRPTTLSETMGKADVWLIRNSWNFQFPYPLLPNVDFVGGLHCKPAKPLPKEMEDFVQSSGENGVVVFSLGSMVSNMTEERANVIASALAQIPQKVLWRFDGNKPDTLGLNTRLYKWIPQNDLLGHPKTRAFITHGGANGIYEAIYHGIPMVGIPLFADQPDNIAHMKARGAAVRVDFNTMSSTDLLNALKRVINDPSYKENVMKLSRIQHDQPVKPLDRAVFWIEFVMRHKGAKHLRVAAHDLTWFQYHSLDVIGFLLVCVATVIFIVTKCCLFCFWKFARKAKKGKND
Method: as §2, §3, §4, §5

[4] = design: method as in PMID 13129448; conditions: healthy subjects, single-dose carotenoid supplement containing 1.3 mg of esterified βC, oral; read-out: mean Cmax (maximum plasma concentration); cited from earlier work
[5] = target: T4, UGT1A1 (Homo sapiens, UniProt P22309); experiment: Ki determination on UGT1A1 activity (β-estradiol-3-glucuronidation) in human liver microsomes
T4 sequence (P22309 26-533): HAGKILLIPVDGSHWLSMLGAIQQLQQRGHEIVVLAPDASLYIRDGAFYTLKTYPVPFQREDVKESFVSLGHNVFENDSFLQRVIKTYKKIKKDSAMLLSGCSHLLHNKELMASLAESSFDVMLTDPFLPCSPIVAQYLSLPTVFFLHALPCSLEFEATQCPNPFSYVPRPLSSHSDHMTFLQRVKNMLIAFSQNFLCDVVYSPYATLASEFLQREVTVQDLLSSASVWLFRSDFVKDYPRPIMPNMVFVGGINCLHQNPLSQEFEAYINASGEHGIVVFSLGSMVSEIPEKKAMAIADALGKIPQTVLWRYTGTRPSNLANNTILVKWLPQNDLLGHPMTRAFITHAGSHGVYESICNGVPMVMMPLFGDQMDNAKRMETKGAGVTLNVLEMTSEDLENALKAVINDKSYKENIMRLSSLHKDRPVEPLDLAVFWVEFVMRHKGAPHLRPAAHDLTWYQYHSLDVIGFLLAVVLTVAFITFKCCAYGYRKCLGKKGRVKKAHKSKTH
Method: Based on the lowest IC50 value, the inhibitor constant (Ki) values of the βC for UGT1A1 were determined. […] All incubations were performed in triplicate, and the mean values were used for the analysis. Other procedures were similar to those of the reversible inhibition studies.
as §1

[6] = recombinant UGT2B15 supersomes, 250 μM 4-methylumbelliferone, mean ± SD of triplicate, read-out: IC50 towards UGT2B15
[7] = read-out: IC50 towards UGT1A9, human liver microsomes, 100 μM propofol, mean ± SD of triplicate
[8] = read-out: IC50 towards UGT2B7, human liver microsomes, 100 μM zidovudine, mean ± SD of triplicate

SMILES	IC50 [1] [µM]	IC50 [2] [µM]	Residual UGT1A9 enzyme activity ([2]; human liver microsomes)	IC50 [3] [µM]	Residual UGT2B7 enzyme activity ([3]; human liver microsomes)	IC50 [1, 6] [µM]	Cmax [4] [nM]	IC50 [2, 7] [µM]	Mode of inhibition of UGT1A1 ([5]; Dixon plots / nonlinear regression)	Ki ([5]; read-out: Ki against UGT1A1-catalyzed β-estradiol-3-glucuronidation, β-estradiol 5, 10 and 20 μM, nonlinear regression) [µM]	IC50 [3, 8] [µM]
CC1=C(/C=C/C(C)=C/C=C/C(C)=C/C=C/C=C(C)/C=C/C=C(C)/C=C/C2=C(C)C[C@@H](O)CC2(C)C)C(C)(C)C[C@H](O)C1 [ZE, zeaxanthin]	> 50	> 50	greater than 80%	> 50	greater than 80%						
CC1=C[C@H](O)CC(C)(C)[C@H]1/C=C/C(C)=C/C=C/C(C)=C/C=C/C=C(C)/C=C/C=C(C)/C=C/C1=C(C)C[C@@H](O)CC1(C)C [LU, lutein]	> 50	> 50		> 50							
CC1=C(/C=C/C(C)=C/C=C/C(C)=C/C=C/C=C(C)/C=C/C=C(C)/C=C/C2=C(C)C[C@@H](O)CC2(C)C)C(C)(C)CCC1 [βC, β-cryptoxanthin]						> 50	~150	> 50	competitive inhibition	12.2 ± 0.985	> 50
CC1=C(/C=C/C(C)=C/C=C/C(C)=C/C=C/C=C(C)/C=C/C=C(C)/C=C/C2=C(C)C(=O)CCC2(C)C)C(C)(C)CCC1=O [CA, canthaxanthin]						> 50		> 50			> 50
CC1=C(/C=C/C(C)=C/C=C/C(C)=C/C=C/C=C(C)/C=C/C=C(C)/C=C/C2=C(C)C(=O)[C@@H](O)CC2(C)C)C(C)(C)C[C@H](O)C1=O [AS, astaxanthin]	> 50	> 50	greater than 80%	> 50	greater than 80%						
